The numbers were not newly measured in paper PMC8468386, “Rapid Identification of Potential Drug Candidates from Multi-Million Compounds’ Repositories. Combination of 2D Similarity Search with 3D Ligand/Structure Based Methods and In Vitro Screening” (Molecules, 2021), which cites them from elsewhere.

SMILES strings stand for the structures. pIC50: −log10 of the molar value.

The first data set has as its system PDE5. Details: method as in PMID 21947759. As to conditions: PDE5 inhibitor first round hit compounds.
Regarding `CCc1ccccc1OCc1nc2ccc(S(=O)(=O)N3CCOCC3)cc2[nH]1` [compound 1], the pIC50 (usually the negative decadic logarithm of the IC50, by convention in mol/L) is 5.44. Take `Cn1c(=O)c2c(nc(Oc3cccc(C=NO)c3)n2Cc2ccccc2Cl)n(C)c1=O` [compound 2]: the pIC50 is 5.70. Turning to `COC(=O)c1sccc1NC(=O)N1CCc2c([nH]c3ccccc23)C1c1ccc(OC)cc1` (stereo not drawn) [compound 4], the pIC50 is 6.72. As for `COc1ccc(C2c3c(n(C)c4ccccc34)C(=O)N2CC(=O)N2CCN(c3ncccn3)CC2)cc1` (stereo not drawn) [compound 5], the pIC50 was 5.17.

The subject of a further data set is Complement Component C1s. Details: method as in PMID 31600984. Particulars: C1s inhibitors.
Turning to `Cc1sc2nc(-c3ccco3)oc(=O)c2c1C` [#17], the pIC50 was 6.26. Consider `O=c1nc(-c2cccs2)oc2cc(Cl)ccc12` [#21], for which the pIC50 is 6.62.
